# Results from patent US12509460B2 (Skyhawk Therapeutics, Inc., priority 2019, dated 2025).
# How the values were obtained:
# [1] = system: SMN protein in spinal muscular atrophy (SMA) patient fibroblasts (GM03813, Coriell); test: SMN protein assay, Mesoscale Discovery (MSD); assay type: cell-based, human; conditions: for EC50: read-out: SMN2 protein EC50
# Procedure, shortened: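 Absolute SMN levels were quantified by MSD against an SMN protein standard curve (1 μg/ml to 19.5 pg/ml) run on each plate. Samples were lysates of GM03813 patient fibroblasts (7000 cells/well) treated 48 hours with compound doses from 2.5 μM down to 0.6 nM.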
# [2] = system: mHTT protein in GM04724 (CAG 70/20) Huntington's disease patient lymphoblast cells; test: mHTT protein assay, 2B7-MW1 assay via Mesoscale Discovery (MSD); assay type: cell-based, human
# Procedure, shortened: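 Signal from the 2B7-MW1 antibody pair on MSD, rising with polyQ length and smaller HTT fragments, measured mHTT after 48 h compound exposure (0.6 nM–10 μM) in GM04724 cells. A parallel replicate plate gave CellTiter Glo viability.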
# [3] = system: MDR1-MDCK cell monolayers; conditions: dog, MDCK-MDR1, 120 min, 5 μM, pH 7.4
# MDR1 (P-gp) = test: in vitro; conditions: dog, MDCK-MDR1, pH 7.4
# MDR1 = test: in vitro; conditions: dog, MDCK-MDR1, pH 7.4
# [4] = SMA patient fibroblasts GM03813, 48 hours, MSD
# [5] = GM04724 Huntington's disease patient lymphoblasts
# [6] = SMA patient fibroblasts (GM03813), 48 hours
# [7] = GM04724 (CAG 70/20) Huntington's disease patient lymphoblasts
SMILES,"EC50 [1, 4] [nM]","mHTT protein EC50 [2, 5]",MDCK-MDR1: % Recov A-B [3] [%],MDCK-MDR1: % Recov B-A [3] [%],"Papp A→B at 120 min, 5 μM (MDR1 (P-gp)) [×10⁻⁶ cm/s]","Papp B→A at 120 min, 5 μM (MDR1 (P-gp)) [×10⁻⁶ cm/s]","efflux ratio at 120 min, 5 μM (MDR1)","SMN2 protein EC50 [1, 4]","SMN2 protein EC50 [1, 6]","mHTT protein EC50 [2, 7]"
"CN(c1ccc(-c2ccc(Oc3cnn(C)c3)cc2O)nn1)[C@@H]1C[C@H]2CC[C@H](N2)[C@@H]1F (single isomer, unassigned) [Compound 91A]",101 to 500,E (501 ≤ E ≤ 10.000),84,82,4.19,62.8,15,,,
"CN(C)C(=O)c1cc(O)c(-c2ccc(N(C)[C@@H]3C[C@H]4CC[C@H](N4)[C@@H]3F)nn2)cc1F (single isomer, unassigned) [Compound 53A]",,E (501 ≤ E ≤ 10.000),96,114,0.32,41,127,E (501 ≤ E ≤ 10.000),,
"CN(c1ccc(-c2cc3ccn(C)c(=O)c3s2)nn1)[C@@H]1C[C@H]2CC[C@H](N2)[C@@H]1F (single isomer, unassigned) [Compound 67A]",,E (501 ≤ E ≤ 10.000),94,99,0.42,37.9,90,E (501 ≤ E ≤ 10.000),,
"CN(c1ccc(-c2cc3ncn(CC(F)(F)F)c(=O)c3cc2O)nn1)[C@H]1C[C@@H]2CC(F)(F)[C@H](C1)N2C (single isomer, unassigned) [Compound 110B]",,,86,93,11.7,47.4,4,,E (501 ≤ E ≤ 10.000),E (501 ≤ E ≤ 10.000)
"CN(C)C(=O)c1cc2cc(O)c(-c3ccc(N(C4CC4)[C@@H]4C[C@H]5CC[C@H](N5)[C@@H]4F)nn3)cc2o1 [Compound 86A, 6-(6-(cyclopropyl((1S,2S,3R,5R)-2-fluoro-8-azabicyclo[3.2.1]octan-3-yl)amino)pyridazin-3-yl)-5-hydroxy-N,N-dimethylbenzofuran-2-carboxamide]",,E (501 ≤ E ≤ 10.000),93,90,1.05,62.5,60,E (501 ≤ E ≤ 10.000),,
"CNC(=O)c1ccc(-c2ccc(N(C)[C@@H]3C[C@H]4CC[C@H](N4)[C@@H]3F)nn2)c(O)c1 (single isomer, unassigned) [Compound 77A]",101 to 500,E (501 ≤ E ≤ 10.000),104,110,0.29,36.3,124,,,
"CN(c1ccc(-c2cc3oc(C(=O)N4CCC4)cc3cc2O)nn1)[C@@H]1C[C@H]2CC[C@@H]([C@@H]1F)N2C [Compound 107A, azetidin-1-yl(6-(6-(((1S,2S,3R,5R)-2-fluoro-8-methyl-8-azabicyclo[3.2.1]octan-3-yl)(methyl)amino)pyridazin-3-yl)-5-hydroxybenzofuran-2-yl)methanone]",,,80,82,1.27,55.1,43,,E (501 ≤ E ≤ 10.000),E (501 ≤ E ≤ 10.000)
"CC(=O)Nc1ccc(-c2ccc(N(C)[C@@H]3C[C@H]4CC[C@H](N4)[C@@H]3F)nn2)c(O)c1 (single isomer, unassigned) [Compound 32A]",,E (501 ≤ E ≤ 10.000),90,98,0.34,20.2,59,E (501 ≤ E ≤ 10.000),,
